The target in one assay is T1, MR (Homo sapiens, UniProt P08235).
T1 construct: host or cells: HEK293T
T1 sequence (P08235 1-984): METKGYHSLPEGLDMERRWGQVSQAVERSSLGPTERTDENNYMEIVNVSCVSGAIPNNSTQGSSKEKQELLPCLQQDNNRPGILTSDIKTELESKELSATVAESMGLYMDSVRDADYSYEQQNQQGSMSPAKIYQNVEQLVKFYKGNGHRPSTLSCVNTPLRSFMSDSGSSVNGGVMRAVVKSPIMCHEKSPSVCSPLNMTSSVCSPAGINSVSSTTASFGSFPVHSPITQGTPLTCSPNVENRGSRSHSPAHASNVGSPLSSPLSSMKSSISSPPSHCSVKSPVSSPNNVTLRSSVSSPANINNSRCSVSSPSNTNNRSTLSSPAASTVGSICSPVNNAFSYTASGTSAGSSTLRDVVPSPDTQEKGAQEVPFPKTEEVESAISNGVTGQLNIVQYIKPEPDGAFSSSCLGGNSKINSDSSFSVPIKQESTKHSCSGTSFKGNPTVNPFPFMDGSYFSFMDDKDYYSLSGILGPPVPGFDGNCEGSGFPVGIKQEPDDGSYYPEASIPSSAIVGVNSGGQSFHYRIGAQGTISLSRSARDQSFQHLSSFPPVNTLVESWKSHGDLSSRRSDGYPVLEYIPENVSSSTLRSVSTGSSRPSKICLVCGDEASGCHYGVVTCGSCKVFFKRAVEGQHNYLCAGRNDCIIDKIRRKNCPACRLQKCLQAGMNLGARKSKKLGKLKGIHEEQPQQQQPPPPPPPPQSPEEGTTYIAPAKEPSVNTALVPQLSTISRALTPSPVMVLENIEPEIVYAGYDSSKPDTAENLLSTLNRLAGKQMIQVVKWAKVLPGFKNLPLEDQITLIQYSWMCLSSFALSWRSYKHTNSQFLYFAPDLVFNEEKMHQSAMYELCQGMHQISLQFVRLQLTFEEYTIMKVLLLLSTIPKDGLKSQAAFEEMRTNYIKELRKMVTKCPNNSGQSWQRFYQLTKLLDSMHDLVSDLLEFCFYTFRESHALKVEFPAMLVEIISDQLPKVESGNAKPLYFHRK
Put plainly: Luciferase reporter assay for MR (HEK293T cells). The class given is cell-based. The conditions noted are these: 0.4–10 μM, 5 nM aldosterone. The method, then:
(§1) Luciferase Reporter Assays for PR, GR, and MR
(§2) PC3, HeLa, and HEK293T cells were cultured using 5% CSS RPMI-1640, 5% CSS RPMI-1640 and 10% FBS DMEM media in 96-well plates for 24 h, respectively. For PR induction, PC3 (1 × 10^4 cells/well) were transfected with 50 ng pcDNA3-PRB (#89130, Addgene), 24 ng pGL4.36[luc2P MMTV Hygro] (Promega) and 5 ng Renilla using HG-TransGeneTM transfection reagent (#TG-10012, Genomeditech) for 4 h. For GR induction, Hela (1 × 10^4 cells/well) were transfected with 71 ng pCMV -GR11 (#89105, Addgene), 24 ng pGL4.36[luc2P MMTV Hygro] (Promega) and 5 ng Renilla using lip3000 transfection reagent (#L3000075, Thermofisher) for 24 h. For MR induction, HEK293T (1 × 10^4 cells/well) were transfected with 71 ng pCMV-MR gifted by Liu et al. 28, 24 ng of pGL4.36[luc2P MMTV Hygro] (Promega) and 5 ng Renilla using lip3000 transfec tion reagent for 24 h. For the antagonistic models, 10 nM /well progesterone for PC3 cells , 1 nM/well dexamethasone for HeLa, and 5 nM/well aldosterone for HEK293T cells were added to stimulate the cells. Meanwhile, each cell line was treated with a series concentration of compounds (0.4, 2, and 10 μM). For the agonistic models, the cells were directly treated with the compounds without any hormones. Endogenous hormones progesterone, dexamethasone, and aldosterone were considered as agonists for PR, GR, and MR, respectively. The luciferase activities were assessed using the Dual-Glo Luciferase system (#E1910, Promega). […]
On the technique in general: A reporter such as luciferase makes a cellular process visible.

A further assay concerns the target T2, GR (Homo sapiens, UniProt P04150).
T2 construct: host or cells: HeLa
T2 sequence (P04150 1-777): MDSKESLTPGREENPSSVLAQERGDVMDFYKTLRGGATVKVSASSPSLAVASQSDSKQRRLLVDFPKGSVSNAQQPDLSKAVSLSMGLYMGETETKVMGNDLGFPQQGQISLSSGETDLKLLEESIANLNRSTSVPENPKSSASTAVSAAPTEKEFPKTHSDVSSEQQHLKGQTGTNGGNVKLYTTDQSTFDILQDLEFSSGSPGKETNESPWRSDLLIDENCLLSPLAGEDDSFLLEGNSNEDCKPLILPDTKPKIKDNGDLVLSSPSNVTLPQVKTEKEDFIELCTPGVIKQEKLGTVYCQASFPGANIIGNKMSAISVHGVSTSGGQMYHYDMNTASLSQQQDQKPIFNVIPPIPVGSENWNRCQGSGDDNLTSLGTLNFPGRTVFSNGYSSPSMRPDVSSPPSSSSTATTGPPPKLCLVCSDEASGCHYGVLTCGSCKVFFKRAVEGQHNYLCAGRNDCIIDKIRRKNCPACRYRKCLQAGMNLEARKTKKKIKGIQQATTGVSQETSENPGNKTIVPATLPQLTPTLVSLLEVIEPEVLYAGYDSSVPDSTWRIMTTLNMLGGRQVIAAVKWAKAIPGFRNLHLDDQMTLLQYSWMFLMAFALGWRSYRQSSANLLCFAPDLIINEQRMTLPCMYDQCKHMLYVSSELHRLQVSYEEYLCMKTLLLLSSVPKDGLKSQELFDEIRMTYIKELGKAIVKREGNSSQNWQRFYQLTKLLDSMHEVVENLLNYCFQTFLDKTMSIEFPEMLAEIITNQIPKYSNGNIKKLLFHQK
As to the kind of experiment: Luciferase reporter assay for GR (HeLa cells). The class given is cell-based. The conditions noted are these: 0.4 μM, 1 nM dexamethasone. How it is done: calculating volume (V= 0.5 × L × W2). Finally, the mice were sacrificed and the tumors were harvested for hematoxylin and eosin (H&E) staining.
as §1
Addgene), 24 ng pGL4.36[luc2P MMTV Hygro] (Promega) and 5 ng Renilla using HG- […]
Addgene), 24 ng pGL4.36[luc2P MMTV Hygro] (Promega) and 5 ng Renilla using lip3000 transfection reagent (#L3000075, Thermofisher) for 24 h. For MR induction, HEK293T (1 × 10^4 cells/well) were transfected with 71 ng pCMV-MR gifted by Liu et al. 28, 24 ng of pGL4.36[luc2P MMTV Hygro] (Promega) and 5 ng Renilla using lip3000 transfec tion reagent for 24 h. For the antagonistic models, 10 nM /well progesterone for PC3 cells , 1 nM/well dexamethasone for HeLa, and 5 nM/well aldosterone for HEK293T cells were added to stimulate the cells. Meanwhile, each cell line was treated […]
For the agonistic models, the cells were directly treated with the compounds without any hormones. […]
hormones progesterone, dexamethasone, and aldosterone were considered as agonists for PR, GR, and MR, respectively. The luciferase activities were assessed using the Dual-Glo Luciferase system (#E1910, Promega).
Cell Cycle and Apoptosis for LNCaP cells
LNCaP were cultured in 6-well plate with 5× 10^5 cells/well, after incubated at 37 °C for […]
Cell cycle were determined after 48 h incubation by Cell Cycle Staining Kit (#CCS012, MULTI SCIENCES) using […]

In the next assay the target is T3, PR (Homo sapiens, UniProt P06401).
T3 construct: host or cells: PC3
T3 sequence (P06401 1-933): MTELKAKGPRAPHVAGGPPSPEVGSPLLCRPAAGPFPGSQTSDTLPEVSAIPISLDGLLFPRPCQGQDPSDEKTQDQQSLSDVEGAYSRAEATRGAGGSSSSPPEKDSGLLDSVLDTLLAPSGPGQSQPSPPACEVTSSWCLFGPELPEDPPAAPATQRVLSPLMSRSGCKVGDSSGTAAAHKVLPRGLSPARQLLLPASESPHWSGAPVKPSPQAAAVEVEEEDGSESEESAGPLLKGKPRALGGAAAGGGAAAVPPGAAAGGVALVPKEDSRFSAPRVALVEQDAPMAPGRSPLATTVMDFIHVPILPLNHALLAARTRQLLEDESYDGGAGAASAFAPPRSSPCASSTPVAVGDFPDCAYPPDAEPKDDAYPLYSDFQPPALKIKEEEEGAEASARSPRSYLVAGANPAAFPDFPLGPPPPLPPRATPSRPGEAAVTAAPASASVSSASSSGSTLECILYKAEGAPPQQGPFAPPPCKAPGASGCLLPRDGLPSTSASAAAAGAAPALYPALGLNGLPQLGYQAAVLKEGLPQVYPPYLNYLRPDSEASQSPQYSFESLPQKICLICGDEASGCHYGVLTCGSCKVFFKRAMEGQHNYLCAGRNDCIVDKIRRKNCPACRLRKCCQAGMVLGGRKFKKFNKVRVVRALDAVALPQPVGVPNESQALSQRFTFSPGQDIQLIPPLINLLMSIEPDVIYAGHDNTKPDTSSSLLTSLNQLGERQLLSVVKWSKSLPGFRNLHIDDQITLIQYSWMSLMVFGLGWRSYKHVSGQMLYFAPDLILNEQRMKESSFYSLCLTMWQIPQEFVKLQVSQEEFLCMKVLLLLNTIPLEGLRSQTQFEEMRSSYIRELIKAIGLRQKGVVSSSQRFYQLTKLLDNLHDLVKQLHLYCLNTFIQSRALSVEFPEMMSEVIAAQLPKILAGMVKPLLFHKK
Put plainly: Luciferase reporter assay for PR (PC3 cells). The class given is cell-based. The conditions noted are these: 0.4 μM, 10 nM progesterone. The method, then: as §1, §2

For assay [1], the target named is wild type androgen receptor ligand-binding domain (AR LBD) (human). Put plainly: cross-linking + other: SAXS; chemical cross-linking coupled with mass spectrometry (CXMS) of purified AR LBD; ensemble refinement against the cross-link restraints; dimer to monomer ratio fitted; with and without M17-B15.

As to `CC(=O)S[C@@H]1CC2=CC(=O)CC[C@]2(C)[C@H]2CC[C@@]3(C)[C@@H](CC[C@@]34CCC(=O)O4)[C@H]12` [abbolactone], the “MR antagonistic activity” value on MR is “potent”.
Take `CC#C[C@]1(O)CC[C@H]2[C@@H]3CCC4=CC(=O)CCC4=C3[C@@H](c3ccc(N(C)C)cc3)C[C@@]21C` [mifepristone]: the GR antagonistic activity on GR is > 90%. Also, the PR antagonistic activity on PR is > 90%.
In the case of “wild type androgen receptor ligand-binding domain (AR LBD) (domain or fragment)”, in assay [1], the proportion of the dimer (with M17-B15) came out at 15% and the proportion of the dimer (without M17-B15) stood at 20%.

The values are drawn from article PMC10141604, “Small-Molecule Inhibition of Androgen Receptor Dimerization as a Strategy against Prostate Cancer” (ACS Central Science, 2023).
